Assay results reported in paper PMC4738305, “Metabolism and Disposition of Aditoprim in Swine, Broilers, Carp and Rats” (Scientific Reports, 2016).

Columns and labels:
[1] = Tissue distribution and elimination of total radioactivity (total residues) after oral ^3H-ADP for 7 d; format: in vivo; settings: rats, 5 mg/kg b.w. 7 days
Procedure: (§1) (0.1 Ci/g) through oral gavage for 7 consecutive days. All the animals were housed on the basis of their group in the cages or aquaria throughout the whole study period. A group of animals was slaughtered through exsanguination under diethyl ether inhalation of anesthesia in the period of 6 h, 1, 3, 7, 14, and 21 d after the administration. The blood samples were immediately collected into the heparinized tubes and was centrifuged at 1920 × g at 4 °C for 10 min to obtain the plasma. The tissues from the heart, liver, spleen, lung, kidney, craw (broilers), stomach, intestine, fat, skin, muscle, thymus, pancreas, bile, bladder, hair (scale for carp), genital gland, adrenal glands, swim bladder (carp), brain, lymph, and bursa (broilers) were carefully excised and collected. The tissues were thoroughly rinsed with the deionized water to remove the residuary blood, blotted to dryness, and finally to perform the homogenization. In order to avoid cross-contamination the dissecting instruments were washed during the tissue procurements. The blank tissues were collected in order to provide control matrices. The total radioactivity levels in each sample were determined through LSC. The samples extracted from the plasma, bile, and tissues of the liver, kidney, muscle, and fat/skin were analyzed through LC/MS-IT-TOF and v. ARC radiometric detection for metabolite profiling.
(§2) Measurements of the total radioactivity in each sample were conducted by Packard Tri-Carb 2900 TR liquid scintillation counter (PerkinElmer Life and Analytical Sciences). The detection time was 10 min for two cycles. The scintillation counter data were automatically corrected for counting efficiency by instrument-stored quench curve which was drawn with a series of sealed quenched […] standards. The actual radioactivity of each sample was calculated by subtracting the background value form the mean radioactivity in two blank samples. All the samples were analyzed in duplicate if the sample size allowed this. If the results were differed by more than 10% from the mean value, the samples were reanalyzed. The samples with LSC counts less than 2-fold of the level of the running background were considered to contain insufficient radioactivity for reliable quantification.
(§3) Aliquots of liquid samples (urine, plasma, bile and raised water, 200 μL) were mixed with 10 mL of Ultima Gold^TM scintillation fluid for the direct analysis by LSC. Aliquots of solid samples (feces and tissues, 200 mg) were digested overnight with 2 mL tissue solubilizer at 50 °C in a shaking water bath, followed by adding 200 μL of 0.1 mol/L EDTA-Na and 200 μL of 30% H2O2, and was bathed at 50 °C for 2 h to bleach. The obtained transparent liquid were mixed with 10 mL of scintillation fluid and finally were counted by LSC. The digestion efficiency was determined by using the blank samples spiked with ^3 H standard for digestion, and the measured radioactivity content in the digested samples were adjusted by using the digestion efficiency values.
(§4) The concentrations of ADP and/or its metabolites were analyzed by using the following equation: C = L/(2.22 × 10^9 × RM), where C is the concentration of ADP or/and its metabolites (mg/kg), L is the LSC count (dpm), R is the specific activity of the administered dose (0.1 Ci/g), and M is the weight or volume of samples (kg or L). The results are expressed as mean ± SD. The elimination kinetics of terminal phase for ADP and its metabolites were conducted by using the WinNonlin linear regression program (Pharsight corporation, Statistical consultants, Inc., Kentucky, USA).

[2] = as above; format: in vivo, broilers; design: Elimination kinetics Ke: unit not given here; settings: for Elimination kinetics Ke / Elimination kinetics t1/2 / Concentrations of total residues: broilers; for Elimination kinetics Ke / Elimination kinetics t1/2: 5 mg/kg b.w. 7 days
Procedure: as §1, §2, §3, §4

[3H]c1c(Cc2cnc(N)nc2N)cc(OC)c(N(C)C)c1OC [^3H-ADP]
Elimination kinetics Ke ([1]; Adrenal): 0.28 | Elimination kinetics Ke ([1]; Bladder): 0.56 | Elimination kinetics t1/2 ([1]; Bladder): 29.5 h | Elimination kinetics Ke ([1]; Blood): 0.22 | Elimination kinetics t1/2 ([1]; Blood): 75.4 h | Elimination kinetics Ke ([1]; Brain): 0.26 | Elimination kinetics t1/2 ([1]; Brain): 64.6 h | Elimination kinetics Ke ([1]; Fat): 0.26 | Elimination kinetics Ke ([1]; Gonades): 0.40 | Elimination kinetics t1/2 ([1]; Gonades): 41.5 h | Elimination kinetics Ke ([1]; Heart): 0.24 | Elimination kinetics t1/2 ([1]; Heart): 70.8 h | Elimination kinetics Ke ([1]; Kidney): 0.21 | Elimination kinetics Ke ([1]; Large Intestine): 0.40 | Elimination kinetics t1/2 ([1]; Large Intestine): 41.3 h | Elimination kinetics Ke ([1]; Liver): 0.18 | Elimination kinetics Ke ([1]; Lung): 0.24 | Elimination kinetics t1/2 ([1]; Lung): 69.1 h | Elimination kinetics Ke ([1]; Muscle): 0.25 | Elimination kinetics Ke ([1]; Pancreas): 0.26 | Elimination kinetics t1/2 ([1]; Pancreas): 63.6 h | Elimination kinetics Ke ([1]; Skin): 0.19 | Elimination kinetics t1/2 ([1]; Skin): 86.2 h | Elimination kinetics Ke ([1]; Small Intestine): 0.36 | Elimination kinetics t1/2 ([1]; Small Intestine): 46.3 h | Elimination kinetics Ke ([1]; Spleen): 0.24 | Elimination kinetics t1/2 ([1]; Spleen): 69.4 h | Elimination kinetics Ke ([1]; Stomach): 0.27 | Elimination kinetics t1/2 ([1]; Stomach): 62.6 h | Elimination kinetics Ke ([1]; Thymus): 0.35 | Elimination kinetics t1/2 ([1]; Thymus): 48.2 h | concentration of total radioactivity ([2]; broilers bile, within 6 h after oral ^3H-ADP for 7 d): 25.2 ± 8.5 mg/kg | Elimination kinetics Ke ([2]; Bile): 0.71 | Elimination kinetics t1/2 ([2]; Bile): 25.9 h | Elimination kinetics Ke ([2]; Blood): 0.31 | Elimination kinetics t1/2 ([2]; Blood): 54 h | Elimination kinetics Ke ([2]; Brain): 0.47 | Elimination kinetics t1/2 ([2]; Brain): 35.5 h | Elimination kinetics Ke ([2]; Bursa of Fabricius): 0.33 | Elimination kinetics t1/2 ([2]; Bursa of Fabricius): 50.6 h | Elimination kinetics Ke ([2]; Fat): 0.42 | Concentrations of total residues ([2]; Fat, time 0.25, 5 mg/kg b.w. 7 days): 0.78 ± 0.32 mg/kg | Concentrations of total residues ([2]; Fat, time 1, 5 mg/kg b.w. 7 days): 0.43 ± 0.05 mg/kg | Concentrations of total residues ([2]; Fat, time 3, 5 mg/kg b.w. 7 days): 0.24 ± 0.02 mg/kg | Concentrations of total residues ([2]; Fat, time 7, 5 mg/kg b.w. 7 days): 0.04 ± 0.01 mg/kg | Elimination kinetics Ke ([2]; Feathers): 0.28 | Elimination kinetics t1/2 ([2]; Feathers): 60 h | Concentrations of total residues ([2]; Feathers, time 0.25, 5 mg/kg b.w. 7 days): 0.85 ± 0.17 mg/kg | Concentrations of total residues ([2]; Feathers, time 1, 5 mg/kg b.w. 7 days): 0.53 ± 0.12 mg/kg | Concentrations of total residues ([2]; Feathers, time 3, 5 mg/kg b.w. 7 days): 0.27 ± 0.03 mg/kg | Concentrations of total residues ([2]; Feathers, time 7, 5 mg/kg b.w. 7 days): 0.10 ± 0.01 mg/kg | Elimination kinetics Ke ([2]; Glandular stomach): 0.59 | Elimination kinetics t1/2 ([2]; Glandular stomach): 28.1 h | Concentrations of total residues ([2]; Glandular stomach, time 1, 5 mg/kg b.w. 7 days): 1.54 ± 0.36 mg/kg | Concentrations of total residues ([2]; Glandular stomach, time 3, 5 mg/kg b.w. 7 days): 0.27 ± 0.05 mg/kg | Concentrations of total residues ([2]; Glandular stomach, time 7, 5 mg/kg b.w. 7 days): 0.04 ± 0.00 mg/kg | Elimination kinetics Ke ([2]; Heart): 0.29 | Elimination kinetics t1/2 ([2]; Heart): 57.8 h | Elimination kinetics Ke ([2]; Kidney): 0.30 | Elimination kinetics Ke ([2]; Large Intestine): 0.90 | Elimination kinetics t1/2 ([2]; Large Intestine): 18.5 h | Concentrations of total residues ([2]; Large Intestine, time 0.25, 5 mg/kg b.w. 7 days): 6.29 ± 1.45 mg/kg | Concentrations of total residues ([2]; Large Intestine, time 1, 5 mg/kg b.w. 7 days): 1.25 ± 0.23 mg/kg | Concentrations of total residues ([2]; Large Intestine, time 3, 5 mg/kg b.w. 7 days): 0.12 ± 0.03 mg/kg | Concentrations of total residues ([2]; Large Intestine, time 7, 5 mg/kg b.w. 7 days): 0.01 ± 0.00 mg/kg | Elimination kinetics Ke ([2]; Liver): 0.21 | Elimination kinetics Ke ([2]; Lung): 0.61 | Elimination kinetics t1/2 ([2]; Lung): 27.4 h | Elimination kinetics Ke ([2]; Maw): 0.53 | Elimination kinetics t1/2 ([2]; Maw): 31.4 h | Elimination kinetics Ke ([2]; Muscle): 0.23 | Concentrations of total residues ([2]; Muscle, time 0.25, 5 mg/kg b.w. 7 days): 1.10 ± 0.44 mg/kg | Concentrations of total residues ([2]; Muscle, time 1, 5 mg/kg b.w. 7 days): 0.23 ± 0.10 mg/kg | Elimination kinetics Ke ([2]; Muscular stomach): 0.46 | Elimination kinetics t1/2 ([2]; Muscular stomach): 36.5 h | Concentrations of total residues ([2]; Muscular stomach, time 0.25, 5 mg/kg b.w. 7 days): 1.92 ± 0.57 mg/kg | Concentrations of total residues ([2]; Muscular stomach, time 1, 5 mg/kg b.w. 7 days): 0.69 ± 0.10 mg/kg | Concentrations of total residues ([2]; Muscular stomach, time 3, 5 mg/kg b.w. 7 days): 0.25 ± 0.03 mg/kg | Concentrations of total residues ([2]; Muscular stomach, time 7, 5 mg/kg b.w. 7 days): 0.04 ± 0.01 mg/kg | Elimination kinetics Ke ([2]; Pancreas): 0.57 | Elimination kinetics t1/2 ([2]; Pancreas): 29 h | Elimination kinetics Ke ([2]; Skin): 0.43 | Elimination kinetics t1/2 ([2]; Skin): 38.6 h | Concentrations of total residues ([2]; Skin, time 0.25, 5 mg/kg b.w. 7 days): 1.78 ± 0.42 mg/kg | Concentrations of total residues ([2]; Skin, time 1, 5 mg/kg b.w. 7 days): 0.74 ± 0.11 mg/kg | Concentrations of total residues ([2]; Skin, time 3, 5 mg/kg b.w. 7 days): 0.25 ± 0.02 mg/kg | Concentrations of total residues ([2]; Skin, time 7, 5 mg/kg b.w. 7 days): 0.05 ± 0.01 mg/kg | Elimination kinetics Ke ([2]; Small Intestine): 0.75 | Elimination kinetics t1/2 ([2]; Small Intestine): 22.1 h | Concentrations of total residues ([2]; Small Intestine, time 0.25, 5 mg/kg b.w. 7 days): 8.23 ± 0.93 mg/kg | Concentrations of total residues ([2]; Small Intestine, time 1, 5 mg/kg b.w. 7 days): 4.06 ± 1.32 mg/kg | Concentrations of total residues ([2]; Small Intestine, time 3, 5 mg/kg b.w. 7 days): 0.29 ± 0.04 mg/kg | Concentrations of total residues ([2]; Small Intestine, time 7, 5 mg/kg b.w. 7 days): 0.04 ± 0.00 mg/kg | Elimination kinetics Ke ([2]; Spleen): 0.26 | Elimination kinetics t1/2 ([2]; Spleen): 63.1 h
